Results on one molecule are retold here after patent US20130324606A1, “Ester Derivatives of Bimatoprost Compositions and Methods” (ALLERGAN, INC., priority 2011, published 2013).

Data set [1] is described as follows: microAmes mutagenesis screen. Type of data set: cell-based. The note with it: with or without metabolic activation. The source says: Cmpds IVa, IIIb, and IVb were subjected to the microAmes screen, as known in the art.
A short description of data set [2]: Dermal tolerability in rats. The note with it: female rats. Format: in vivo. The protocol:
Female rats were administered either vehicle or one of Cmpds IVa, IIIb, or IVb daily for 8 days. The administered dose was 3 mg/kg/day, at a concentration of 3 mg/mL. Observed data were body weight, viability, food consumption, and dermal observation (skin reaction grading), as known in the art. The vehicle was Formulation A. See Table 1 above.

The nature of data set [3]: Compound distribution in mouse skin by MALDI-MS imaging. Format: in vivo. The protocol: In order to determine the penetration, accumulation and/or differential distribution of bimatoprost and compounds disclosed herein upon dermal administration, MALDI-MS (matrix assisted laser desorption ionization mass spectroscopy) imaging was conducted on explanted samples of mouse skin after topical dermal administration.
MALDI-MS imaging was conducted on mouse skin strips after administration of bimatoprost or compound disclosed herein once daily for 3 days. Samples of mouse skin were recovered 4 hr after day-3 dosing of compound. Dermal administration was conducted with vehicle, 0.03% bimatoprost, 3% bimatoprost, 0.03% Cmpd IVa, and 3% Cmpd IVa.
FIG. 16A depicts a typical explanted sample of mouse skin for these studies, wherein Cmpd IVa was applied via dermal administration. FIG. 16B depicts the result of MALDI-MS imaging. The intensity of each pixel within FIG. 16B reflects the concentration of Cmpd IVa at the corresponding point in the image depicted in FIG. 16A. FIG. 16C depicts a representative mass spectrum, corresponding to the region of FIG. 16B indicated by the white circle within FIG. 16B. Accordingly, each pixel of the image of FIG. 16B has an associated mass spectrum, providing the amounts of bimatoprost or other administered compound or metabolite thereof.

Where [4] appears, read: dermal 3 mg/kg/day daily for 8 days, Formulation A.

For the molecule `CCNC(=O)CCC/C=C\C[C@@H]1[C@@H](/C=C/[C@H](CCc2ccccc2)OC(C)=O)[C@H](O)C[C@@H]1O` [Cmpd IVa, 15-acetyl-bimatoprost], in data set [1], the “mutagenicity in microAmes screen” value was “not mutagenic”. In data set [2] (3 mg/kg/day daily for 8 days), the “change in food consumption and body weight gain (in words)” value is on record as “no significant change in food consumption or body weight gain”. Moreover, the “dermal observation: signs of irritation” value in data set [2] (3 mg/kg/day, days 2-4) was “minimal and transient signs of irritation”. Besides, in data set [2] (setting [4]), the “Body Weight Gain (g) Mean ± SD” value is given as 9.0 ± 3.0 g and the “Food Consumption (g) Mean ± SD” value is reported as 21.14 ± 1.08 g. In addition, the “detectability in mouse skin by MALDI-MS imaging” value in data set [3] (after topical dermal administration at 0.03%) is listed as “detectable”. Further, the “skin penetration of 3.0% compound compared with 3.0% bimatoprost” value in data set [3] (topical dermal administration, MALDI-MS) is “similar”.
